Experiments:
[1] = system: CD4+ T cells in PBMC from people with recent onset T1D; test: CFSE-based proliferation assay, PBMC of people with T1D; format: cell-based, human; settings: CFSE-labelled PBMC, peptide 10 μM, mean CDI
Procedure: (§1) Blood was obtained by venepuncture. Peripheral blood mononuclear cells (PBMC) were isolated over Ficoll-paque (GE Healthcare) and washed twice in phosphate buffered saline (PBS) as described. The CFSE (5,6-carboxyfluorescein diacetate succinimidyl ester) proliferation assays were performed as described previously. CFSE-labelled PBMC were cultured with either: no antigen, full-length C-peptide (^PI33-63), or ^PI33-63 Q38E (referred to as Q6E), ^PI33-63 Q41E (referred to as Q9E), ^PI33-63 Q54E, (referred to as Q22E) ^PI33-63 Q63E (referred to as Q31E), or ^PI33-63 with all glutamines substituted for glutamic acid, (referred to as QallE). See Supplementary Table 5 for a detailed description of the peptides. Each peptide was used at a final concentration of 10 μM. Positive controls were tetanus toxoid (TT 10LfU/ml, Statens Serum Institut) and/or anti-CD3 (OKT3 10 ng/ml). The results are presented as a cell division index (CDI), the ratio of the number of CD4^+ T cells that have proliferated in the presence of antigen to the number of CD4^+ T cells that have proliferated in the absence of antigen.
(§2) Our analysis of CD4^+ Jurkat lines expressing TCRs derived from primary CD4^+ T cells used TCRs derived from CD4^+ T cells that were selected for their specificity for WT C-peptide. […] This may be due to Q to E substitutions being poorly tolerated by the TCRs that were selected based on their recognition of WT C-peptide. To address this, we measured polyclonal CD4^+ T-cell responses in PBMC from people with recent onset type 1 diabetes. (see Supplementary Tables 5 and 6 for details of each subject). […] Next, in a separate cohort we investigated CD4^+ T-cell responses to the five C-peptide variants with individual Q to E substitutions in PBMC of people with recent onset type 1 diabetes (Fig. 3B). We found, as expected, that a majority of PBMC samples responded to WT C-peptide, but responses to Q to E substituted C-peptide variants were not stronger, in fact in most cases they were weaker, than responses to WT C-peptide. (See Supplementary Tables 7–9 for results from individual subjects). Finally, we asked if people without T1D, but who carried the T1D-associated HLA alleles, HLA-DQ2, or HLA-DQ8 had stronger responses to Q to E substituted C-peptide variants (Fig. 3C). Here few subjects had response to WT C-peptide and only a minority had greater responses to Q to E substituted variants of C-peptide, compared to WT C-peptide.
(§3) Fig. 3 PBMC responses to WT and deamidated C-peptide variants. (A) Proliferation in responses, measured as a cell division index (CDI) to WT or QallE C-peptide were compared in 8 PBMC from 8 people with recent onset T1D. Responses from the same individual are linked. […] (B) PBMC proliferation responses to WT and C-peptide variants with individual Q to E substitution and QallE from people with recent onset T1D (B) and HLA matched control subjects who don't have T1D (C). Only difference which reached statistical significance are marked (* = P < 0.05). For responses in subjects without T1D, none of the differences between groups reached statistical significance, p > 0.05, by Wilcoxon matched pairs signed rank test of Log 10 transformed CDI data. Each point is a different individual, bars show the mean and the standard deviation for each group.

[2] = system: CD4+ T cells in PBMC from subjects without T1D; test: CFSE-based proliferation assay, PBMC of subjects without T1D; format: cell-based, human; settings: CFSE-labelled PBMC, peptide 10 μM, mean CDI
Procedure: as §1, §2, §3

Sequence	Cell division index (CDI) ([1]; T1D donor 9)	Cell division index (CDI) ([1]; T1D donor 10)	Cell division index (CDI) ([1]; T1D donor 11)	Cell division index (CDI) ([1]; T1D donor 12)	Cell division index (CDI) ([1]; T1D donor 13)	Cell division index (CDI) ([1]; T1D donor 14)	Cell division index (CDI) ([1]; T1D donor 15)	Cell division index (CDI) ([1]; T1D donor 16)	Cell division index (CDI) ([1]; T1D donor 17)	Cell division index (CDI) ([1]; T1D donor 18)	Cell division index (CDI) ([2]; donor 1 without T1D)	Cell division index (CDI) ([2]; donor 2 without T1D)	Cell division index (CDI) ([2]; donor 3 without T1D)	Cell division index (CDI) ([2]; donor 4 without T1D)	Cell division index (CDI) ([2]; donor 5 without T1D)	Cell division index (CDI) ([2]; donor 6 without T1D)
EAEDLEVGQVELGGGPGAGSLQPLALEGSLQ [Q6E, C-peptide variant with glutamine 6 substituted for glutamic acid]	1.0	2.9	0.9	3.4	1.4	1.0	3.6	2.4	8.5	0.0	1.0	2.6	2.1	0.8	62.1	5.5
EAEDLQVGQVELGGGPGAGSLEPLALEGSLQ [Q22E, C-peptide variant with glutamine 22 substituted for glutamic acid]	2.1	2.3	0.8	36.3	54.8	2.6	8.9	3.2	1.5	2.4	1.3	1.1	0.9	1.7	1.8	2.4
